Assay results published in patent US6878536B2, “Phosphoriboxyl-pyrophosphate synthetase polypeptide” (BASF, priority 1997, dated 2005).

System: glutamine-PRPP amidotransferase from Ashbya gossypii
Test: Activity of glutamine-PRPP amidotransferase (Messenger and Zalkin method)
Assay type: biochemical
Conditions: wild-type enzyme, FIG. 1
Excerpt: The glutamine-PRPP amidotransferase from Ashbya gossypii is likewise inhibited by AMP or GMP (see Figure). The activity of glutamine-phosphoribosyl-pyrophosphate amidotransferase from Ashbya gossypii can be measured as described in Messenger and Zalkin (1979) J. Biol. Chem. 254, pages 3382-3392.
This can be shown, for example, by expressing the enzymes in Ashbya gossypii (see Example 11).
Measurement of the activity of Gln-PRPP amidotransferase from A. gossypii and of modified forms of the enzyme as a function of the concentration of adenosine 5′-monophosphate (AMP) and guanosine 5′-monophosphate (GMP).

Compound | inhibition of glutamine-PRPP amidotransferase from Ashbya gossypii
Nc1nc2c(ncn2[C@@H]2O[C@H](COP(=O)(O)O)[C@@H](O)[C@H]2O)c(=O)[nH]1 [GMP, guanosine 5′-monophosphate] | inhibited
Nc1ncnc2c1ncn2[C@@H]1O[C@H](COP(=O)(O)O)[C@@H](O)[C@H]1O [AMP, adenosine 5′-monophosphate] | inhibited
